From patent publication US4098823A, “Monospiroalkyl derivatives of prostaglandins” (Miles Laboratories, Inc., priority 1977, dated 1978)

What was measured:
rat colon = test: Cascade Assay, colon (smooth muscle stimulant effect); type: cell-based; settings: superfused, 50% of maximum (PGF2α)
Method in brief: (§1)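 Rabbit aortic strip (4 g tension), rat stomach fundus, rat colon and chick rectum (1 g) in cascade, superfused at 10 ml/min with 37° C Krebs containing cholinergic, adrenergic, serotonin and histamine blockers. Doses of 0.001–100,000 ng dripped on at 10–20 min intervals; maximal tension rise gave graphical ED50 per tissue.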

rabbit aortic strip = test: Cascade Assay, aorta (smooth muscle stimulant effect); type: cell-based; settings: superfused, 50% of maximum (PGA2)
Method in brief: as §1

[1] = test system: Human Platelet Aggregation; test: Inhibition of Human Platelet Aggregation; type: cell-based; settings: in vitro
Method: The ability of test compounds to inhibit platelet aggregation was determined by a modification of the turbidometric technique of Born (Nature, 194:927 [1962]). Blood was collected from human volunteers who had not ingested aspirin or aspirin-containing products within the preceding two weeks in heparinized containers and was allowed to settle for one (1) hour. The platelet rich plasma (prp) supernates were collected and cooled. Siliconized glassware was used throughout.
In a representative assay 1.9 ml of PRP and 0.2 ml of test compound at the appropriate concentrations (0.001 to 100 mcgm), or 0.2 ml of distilled water (control procedure) were placed in sample cuvettes. The cuvettes were placed in a 37° C incubation block for 15 minutes, and then in a spectrophotometer linked to a strip chart recorder. After 30-60 seconds, 0.2 ml of a solution, prepared by diluting a calf-skin collagen solution 1:9 with Tyrodes' Solution, was added to each cuvette. Platelet aggregation was evidenced by a decrease in optical density.
An ED50 value was then determined graphically.

Femoral Blood Flow = test: Effects on Femoral Blood Flow in the Dog; type: in vivo; settings: anesthetized mongrel dog, intraarterial, 0.001 to 10 mcg
Method: The peripheral vasodilator or constrictor effects of these compounds were determined in mongrel dogs of either sex, weighing between 10 and 20 kg anesthestized intravenously with 35 mg/kg of sodium pentobarbital. An external iliac artery was dissected immediately above the femoral arch for a length of approximately 5 cm and a previously calibrated, non-connulating electromagnetic flowmeter sensor with a lumen between 2.5 and 3.5 mm was placed snugly around the vessel. Cannulas were placed in a branch of the artery arising distally to the location of the flowmeter sensor for intraarterial drug administrations, in the contralateral femoral artery for systemic blood pressure recordings and in the trachea for artificial respiration with room air. Femoral blood flow and systemic blood pressure were continously recorded with an electromagnetic flowmeter and pressure tranducer, respectively.
After an adequate control period, test compounds were injected intraarterially at one log-spaced doses ranging from 0.001 to 10 mcg., in a volume of 0.5 ml and at 5 to 10 minute intervals. Maximum changes in bloodflow, as well as any variations in blood pressure, were tabulated for each dose in absolute values (ml/min. and mmHg). The calculations were made taking as control values those existing immediately before administration of each dose. The direction of the observed change (plus for increase and minus for decrease) was also noted. The dose changing bloodflow by 100 ml/min (ED100 ml/min) was calculated graphically and was used for scoring activity as follows: […]

COC(=O)CCCCCC[C@H]1C(=O)C[C@@H](O)[C@@H]1/C=C/[C@H](O)C1CC2(CCC2)C1 [TR-4120, Methyl 7-{3R-hydroxy-5-oxo-2R-[3R-hydroxy-3-(spiro[3.3]hept-2-yl)-1E-propenyl]cyclopent-1R-yl}heptanoate]
Test E Cascade Assay, Colon, Activity Value (ED50) (rat colon): 0 (>10000) | Test E Cascade Assay, Aorta, Activity Value (ED50) (rabbit aortic strip): 0 (>10000) | inhibition of aggregation of human platelets, in words [1]: inhibit aggregation of platelets | Test C Activity Value (ED100 ml/min, increase in femoral blood flow) (Femoral Blood Flow): 0 (>10.0)
